From patent publication US11220479B2, “Glucosylceramide synthase inhibitors and therapeutic methods using the same” (THE REGENTS OF THE UNIVERSITY OF MICHIGAN, priority 2019, dated 2022)
Counter-ions that a name gives are not always drawn.

What was measured:
[1] = test system: brain glucosylceramide (GCS inhibition); experiment: Reduction of brain glucosylceramide in CBE mice; type: in vivo; settings: qd, 14 days
Experimental: Reduction of Brain Glucosylceramide and Glucosylsphingosine in CBE Mice
The reduction by inhibitors of GCS in brain glucosylceramide and glucosylsphingosine content was determined by the use of mice with Gba 1 mutant alleles, termed D409V/null. These are knock-in mice with a Gba 1 point mutation encoding Valine (V) 409 for the wild type (WT) Aspartate (D) on one missense allele and a null heteroallele [D409V/null (9V/null)]. The D409V/null and WT littermates were of mixed gender and mixed, but matched, genetic backgrounds of C57BL/129Sv/FVB. (Xu Y H, Sun Y, Barnes S, Grabowski G A (2010) Comparative therapeutic effects of velaglucerase alfa and imiglucerase in a Gaucher disease mouse model. PLoS One 5: e10750.) Mice were treated with intraperitoneal conduritol B epoxide (CBE), an irreversible inhibitor of beta-glucocerebrosidase (25 mg/kg/day) for all groups beginning at post-partum day 15. Mice were concurrently treated with GCS inhibitor or vehicle control for 14 days. The mice were sacrificed 2 hours following the last injection and tissues including brain, liver, spleen, kidney and lung were analyzed for glucosylceramide and glucosylsphingosine by mass spectrometry.
(§1) Mouse Tissue Lipid Analysis
(§2) Lipid extractions of liver, kidney, and brain were performed as previously described (7). Briefly, frozen liver (about 0.5 g), two kidneys (about 0.3 g) and whole brain (about 0.4 g) were individually homogenized in sucrose buffer (250 mM sucrose, pH 7.4, 10 mM HEPES and 1 mM EDTA), at 0.2 g tissue/1 mL of sucrose buffer, with a Tri-R homogenizer. Each 0.8 mL of homogenate was mixed with 2 mL of methanol and 1 mL of chloroform, bath sonicated for 1 min and incubated at room temperature for 1 h. Tissue debris were removed by centrifugation at 2,400× gravity for 30 min. The pellets were re-extracted by mixing with 1 mL of methanol, 0.5 mL of chloroform and 0.4 mL of 0.9% NaCl (chloroform/methanol/0.9% NaCl, 1:2:0.8), incubated at room temperature for 1 h and centrifuged at 2,400× gravity for another 30 min. Two extracts were combined and mixed with 4.5 mL of chloroform and 1.2 mL of 0.9% NaCl (chloroform/methanol/0.9% NaCl, 2:1:0.8). After centrifugation at 800× gravity for 5 min, lower layer was washed with 3 mL of methanol and 2.4 mL of 0.9% NaCl. Second washing was carried with 3 mL of methanol, 2 mL of water and 0.4 mL of 0.9% NaCl followed by a 5 min centrifugation at 800× gravity. The resultant lower phase was collected and dried under a stream of N2 gas.
The analysis of neutral glycosphingolipids from mouse liver, kidney, and brain was processed after alkaline methanolysis. […] lipids were incubated with 2 mL of chloroform and 1 ml of 0.21N NaOH in methanol for 2 h (kidney) or 7.5 h (liver and brain) at RT. The lipid extract was normalized to 0.5 μmol of total phospholipid phosphate (liver and kidney) or 2 μmol of total phospholipid phosphate (brain) for high performance thin layer chromatography analysis. After alkaline methanolysis, the brain lipids were passed through a silica gel column (7). Borate-impregnated thin layer chromatography plates were developed in a two solvent system. Plates were first developed in chloroform/methanol (98:2, v/v). The plates loaded with kidney and liver lipids were then developed in chloroform/methanol/water (64:24:4, v/v/v), and brain lipids were further separated in chloroform/methanol/water (60:30:6, v/v/v). GlcCer levels were quantified by comparison to known standards.
(§3) ^a Inhibition of GlcCer production in whole wild-type MDCKII cells. ^bHalf-life when incubated with mouse liver microsomes. ^cAreas under the drug concentration curve after single IP dose in mice (10 mg/kg). ^dReduction in brain levels of glucosylceramide in CBE mice after 14 days of qd dosing with test drug administered IP. NC=no change.

[2] = Half-life when incubated with mouse liver microsomes (MLM); type: in vitro ADME; settings: half-life when incubated with mouse liver microsomes; read-out: MLM T½
Experimental: as §3

[3] = target: T1, glucosylceramide synthase (GCS) (Canis lupus familiaris, UniProt A0A8I3MXG6); experiment: GCS inhibition in MDCKII cells (inhibition of GlcCer production in whole wild-type MDCKII cells); type: cell-based; settings: inhibition of GlcCer production in whole wild-type MDCKII cells, 24 hours; read-out: MDCK IC50
T1 construct: endogenous in cells; host or cells: parental (wild-type) MDCKII cells
T1 sequence (A0A8I3MXG6 1-394): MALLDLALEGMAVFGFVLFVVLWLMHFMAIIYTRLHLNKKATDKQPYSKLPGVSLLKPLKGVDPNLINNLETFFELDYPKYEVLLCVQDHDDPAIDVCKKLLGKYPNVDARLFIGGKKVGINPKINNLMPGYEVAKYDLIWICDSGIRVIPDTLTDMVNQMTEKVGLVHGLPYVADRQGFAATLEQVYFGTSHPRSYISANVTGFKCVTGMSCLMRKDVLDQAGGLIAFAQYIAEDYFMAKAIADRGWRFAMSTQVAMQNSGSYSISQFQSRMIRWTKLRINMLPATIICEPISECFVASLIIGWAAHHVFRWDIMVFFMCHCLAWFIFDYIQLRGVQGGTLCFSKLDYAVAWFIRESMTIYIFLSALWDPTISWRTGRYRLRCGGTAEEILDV
Experimental: GCS Inhibition in MDCKII Cells
Parental (WT-)MDCKII cells were routinely maintained in medium consisting of Opti-MEM/F12 (1:1), 5% FBS, 100 U/mL of penicillin, 100 μg/mL streptomycin and 200 mM L-glutamine. MDCKII cells were newly thawed from frozen ampules every two months.
The inhibitor-ethanol solutions then were diluted 50× into 2 mM delipidated bovine serum albumin-phosphate buffered saline solution to make water-soluble glycosphingolipid inhibitor-bovine serum albumin complexes. The inhibitor-bovine serum album complexes were sterile-filtered and stored at −20° C. Prior to use, portions of the inhibitor-bovine serum albumin complexes were further diluted with Opti-F12 to make treatment solutions. Equal amounts of bovine serum albumin and ethanol were added into the control cultures. Cells (5×10^5) were seeded into 10-cm culture dishes containing 10 ml of Opti-F12 with 5% FBS. After 24 hours, the medium was replaced with fresh serum-free Opti-F12 medium, and cells were exposed to candidate GCS inhibitors at concentrations of 0, 1, 3, 10, 30, 100 and 300 nM for 24 hours.
Briefly, cells were washed with ice-cold phosphate buffered saline, fixed by methanol, and collected with rubber scraper. Chloroform was then added to yield a theoretical ratio of chloroform:methanol:water at 1:2:0.8 (v/v/v) to form a mono-phase. Cell debris and proteins were removed by centrifugation at 2200×g for 30 min. The supernatants were portioned by adding chloroform and 0.9% NaCl. […] A portion of purified glycosphingolipids normalized to 100 nmol of total phospholipids was analyzed by high performance thin layer chromatography. The thin layer chromatography separations were processed twice. The plate pretreated with 1% sodium borate was first developed in a solvent system consisting of chloroform/methanol (98/2, v/v). After air drying, the plate was then developed in a solvent system containing chloroform/methanol/water (70/30/4, v/v/v). The levels of glucosylceramide were detected by charring with 8% cupric sulfate in 8% phosphoric acid, and quantified by densitometric scanning using ImageJ, NIH Image.

[4] = IP PK: areas under the drug concentration curve after single IP dose in mice; type: in vivo; settings: for IP PK Brain AUC / AUC: mice, single IP dose 10 mg/kg; for AUC: mouse, plasma
[5] = test system: brain glucosylceramide content; experiment: Brain glucosylceramide content after intraperitoneal administration to mice for 3 days; type: in vivo; settings: intraperitoneal administration for 3 days
Experimental: The compounds were screened for inhibition of GCS in broken cell and whole cell assays, and for MDR1 substrate recognition.
as §1
as §2, with “Second washing was carried with 3 mL of methanol, 2 mL of water and 0.4 mL of 0.9% NaCl followed by a 5 min centrifugation at 800× gravity. The resultant lower phase was collected and dried under a stream of N2 gas.” left out
The analysis of neutral glycosphingolipids from mouse liver, kidney, and brain was processed after alkaline methanolysis. […] GlcCer levels were quantified by comparison to known standards.

Row | SMILES | Reduction in brain GlcCer in CBE mice ([1]; 26 μmol/kg/day IP) [%] | half-life [2] [min] | IC50 [3] [nM] | IP PK Brain AUC [4] [µg·h/mL] | AUC [4] [µg·h/mL] | Reduction in brain GlcCer in CBE mice ([1]; 36 μmol/kg/day IP) [%] | Reduction in brain GlcCer in CBE mice ([1]; 100 μmol/kg/day IP) [%] | drug exposure in the brain versus compound lacking the 3-chloro substituent [4] | decrease in brain glucosylceramide content [5]
1 | O=C(CC1Cc2ccc(F)cc2C1)N[C@H](CN1CCCC1)[C@H](O)c1cccc(Cl)c1 (stereo partly drawn) [Example 9, N-((1R,2R)-1-(3-chlorophenyl)-1-hydroxy-3-(pyrrolidin-1-yl)propan-2-yl)-2-(5-fluoro-2,3-dihydro-1H-inden-2-yl)acetamide] | 43 | 50 | 0.8 | 0.869 | 2.18 | – | – | – | –
2 | O=C(CC1Cc2ccccc2C1)N[C@H](CN1CCCC1)[C@H](O)c1cccc(Cl)c1 [Example 1, N-((1R,2R)-1-(3-chlorophenyl)-1-hydroxy-3-(pyrrolidin-1-yl)propan-2-yl)-2-(2,3-dihydro-1H-inden-2-yl)acetamide] | – | 18 | 1 | 1.109 | 1.54 | 23 | – | – | –
3 | CC(C)(C)Oc1ccc([C@@H](O)[C@@H](CN2CCCC2)NC(=O)CC2Cc3ccccc3C2)cc1Cl [Example 2, N-((1R,2R)-1-(4-(tert-butoxy)-3-chlorophenyl)-1-hydroxy-3-(pyrrolidin-1-yl)propan-2-yl)-2-(2,3-dihydro-1H-inden-2-yl)acetamide] | 21 | 170 | 0.081 | 1.316 | 1.99 | – | – | – | –
4 | CC1(Oc2ccc([C@@H](O)[C@@H](CN3CCCC3)NC(=O)CC3Cc4ccccc4C3)cc2Cl)COC1 [Example 5, N-((1R,2R)-1-(3-chloro-4-((3-methyloxetan-3-yl)oxy)phenyl)-1-hydroxy-3-(pyrrolidin-1-yl)propan-2-yl)-2-(2,3-dihydro-1H-inden-2-yl)acetamide] | – | 40 | 0.74 | 0.366 | 0.849 | – | 64 | improved | –
5 | O=C(CC1Cc2ccccc2C1)N[C@H](CN1CCCC1)[C@H](O)c1ccc(OC2CC2)c(Cl)c1 [Example 4, N-((1R,2R)-1-(3-chloro-4-cyclopropoxyphenyl)-1-hydroxy-3-(pyrrolidin-1-yl)propan-2-yl)-2-(2,3-dihydro-1H-inden-2-yl)acetamide] | 33 | 24 | 0.14 | 0.293 | 1.02 | – | – | – | –
6 | CCCCCCCC(=O)N[C@H](CN1CCCC1)[C@H](O)c1ccc2c(c1)OCCO2 [eliglustat tartrate, N-((1R,2R)-1-(2,3-dihydrobenzo-[b][1,4]dioxin-6-yl)-1-hydroxy-3-(pyrrolidin-1-yl)propan-2-yl)octanamide] | – | – | – | – | – | – | – | – | not seen
7 | O=C(N[C@H](CN1CCCC1)[C@H](O)c1cccc(Cl)c1)OC1Cc2ccccc2C1 [Example 6, 2,3-dihydro-1H-inden-2-yl ((1R,2R)-1-(3-chlorophenyl)-1-hydroxy-3-(pyrrolidin-1-yl)propan-2-yl)carbamate] | – | 18 | 3.8 | 0.997 | 0.401 | – | – | – | –
8 | O=C(N[C@H](CN1CCCC1)[C@H](O)c1ccc(OC2CC2)c(Cl)c1)OC1Cc2ccccc2C1 [Example 12, 2,3-dihydro-1H-inden-2-yl ((1R,2R)-1-(3-chloro-4-cyclopropoxyphenyl)-1-hydroxy-3-(pyrrolidin-1-yl)propan-2-yl)carbamate] | 32 | 29 | 0.32 | 0.21 | 0.37 | – | – | – | –
9 | CC1(C)COc2cc([C@@H](O)[C@@H](CN3CCCC3)NC(=O)CC3Cc4ccccc4C3)cc(Cl)c2O1 [Example 7, N-((1R,2R)-1-(8-chloro-2,2-dimethyl-2,3-dihydrobenzo[b][1,4]dioxin-6-yl)-1-hydroxy-3-(pyrrolidin-1-yl)propan-2-yl)-2-(2,3-dihydro-1H-inden-2-yl)acetamide] | 49 | 44 | 0.061 | 0.129 | 0.59 | – | – | improved | –
